The test system of data set [1] is human pan T-cells with iC9 safety switch. As to the kind of experiment: iC9 safety switch test: viability of modified T cells incubated with AP1903 (7-AAD flow cytometry). Format: cell-based. The source says: Human pan T-cells were nucleofected using an Amaxa 4D nucleofector with one of four piggyBac transposons. Modified T cells receiving the “mock” condition were nucleofected with an empty piggyBac transposon. Modified T cells received either a piggyBac transposon containing a therapeutic agent alone (a sequence encoding a CARTyrin) or a piggyBac transposon containing an integrated iC9 sequence and a therapeutic agent (a sequence encoding a CARTyrin). To test the iC9 safety switch, each of the four modified T cells were incubated for 24 hours with 0, 0.1 nM, 1 nM, 10 nM, 100 nM or 1000 nM AP1903 (an induction agent for […]). Viability was assessed by flow cytometry using 7-aminoactinomycin D (7-AAD), a fluorescent intercalator, as a marker for cells undergoing apoptosis.
In general terms: Flow cytometry measures light scatter and fluorescence of single cells or particles in a stream.

The nature of data set [2]: GLP repeat dose intravenous toxicity study of rimiducid in rats. As to conditions: rat, in vivo. The text has this: In vitro and in vivo studies have been conducted by Poseida with rimiducid and the iC9-based safety switch-containing CAR-T cell product P-BCMA-101 with similar results. A GLP repeat dose intravenous toxicity study in rats has recently been conducted by Poseida. […] (see Rimiducid Investigator's Brochure for further detail).

A further data set deals with cells. As to conditions: cited from earlier work.
The test system of data set [3] is T cells carrying an iC9-based safety switch gene. As to conditions: cited from earlier work.
Details of data set [4]: plasma level as % of maximal concentration: dose or concentration left out as unconfirmed. As to conditions: cited from earlier work.
A further data set has as its system relapsed/refractory MM. The settings on record: standard of care; cited from earlier work.
Data set [5] concerns the target T1, B-cell maturation antigen (BCMA), human, expressed on cells (human, UniProt Q02223 1-184).
T1 construct: whole, on cells; also called Tumor necrosis factor receptor superfamily member 17 (TNFRSF17)
T1 sequence (looked up): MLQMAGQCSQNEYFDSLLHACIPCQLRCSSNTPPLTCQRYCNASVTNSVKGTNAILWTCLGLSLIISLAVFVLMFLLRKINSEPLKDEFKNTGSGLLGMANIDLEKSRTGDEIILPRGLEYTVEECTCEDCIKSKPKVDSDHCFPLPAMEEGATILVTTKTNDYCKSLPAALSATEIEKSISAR
The experiment in a line: screen of 4300+ human proteins, each individually expressed in human HEK293 cells. The text has this:
The Centyrin-Fc fusion protein was screened for binding against 4300+ human proteins. The vast majority of these human proteins represent cell surface membrane proteins, each individually expressed in human HEK293 cells.

Like-named read-outs stand apart in the source and are kept apart here. Where only a bound is given, the exact number is not on record here.

In the case of `CC[C@H](C(=O)N1CCCC[C@H]1C(=O)O[C@H](CCc1ccc(OC)c(OC)c1)c1cccc(OCC(=O)NCCNC(=O)COc2cccc([C@@H](CCc3ccc(OC)c(OC)c3)OC(=O)[C@@H]3CCCCN3C(=O)[C@@H](CC)c3cc(OC)c(OC)c(OC)c3)c2)c1)c1cc(OC)c(OC)c(OC)c1` (relative stereo) [AP1903, 2-Piperidinecarboxylic acid, 1-[(2S)-1-oxo-2-(3,4,5-trimethoxyphenyl)butyl]-, 1,2-ethanediylbis[imino(2-oxo-2,1-ethanediyl)oxy-3,1-phenylene[(1R)-3-(3,4-dimethoxyphenyl)propylidene]]ester, [2S-[1(R*),2R*[S*[S*[1(R*),2R*]]]]]-(9C1)], the “lowest concentration at which apoptosis is induced” value in data set [1] (cells containing iC9 construct, 24 hours incubation) is ≤ 0.1 nM. In addition, the “shift of cell population to apoptotic quadrant with increasing induction agent” value in data set [1] (cells lacking the iC9 construct (CARTyrin only)) is reported as “not observed”. In addition, the toxic effect entry in data set [2] is recorded as “No noticeable toxic effect”. For the same molecule, the no observed adverse effect level (NOAEL) – broadly, the highest dose or exposure tested at which no adverse effect was seen – in data set [2] (repeated (three times) intravenous administration) was > 15 mg/kg. For the same molecule, the “amount needed in vitro for effective signaling of cells” value with cells is 10 to 100 nM. For the same molecule, the “modified T cells eliminated” value in data set [3] (0.4 mg/kg 2-hour infusion, within 30 minutes following infusion) was 90%. Also, the GVHD outcome in data set [3] (0.4 mg/kg) is “GVHD completely resolved”. In data set [3] (clinical studies published to date), the adverse events result is “no significant adverse events”. Moreover, the “further depletion of modified T cells” value in data set [3] (during the next 24 hours) was “further log depletion”. The pharmacokinetics entry in data set [3] (human, in vivo) is “consistent and linear pharmacokinetics”. Further, the toxicity result in data set [3] (within and above the effective dose range (0.01-1.0 mg/kg)) is listed as “effectively no toxicity”. Moreover, the “plasma levels in relation to dose” value in data set [4] (0.01-1.0 mg/kg) was “directly proportional to dose”. For the same molecule, the “plasma level as % of maximal concentration” value is recorded as ~7% in data set [4] (2 hours post-dose), ~1% in data set [4] (10 hours post-dose) and “approximately 18%” in data set [4]. Further, in data set [4] (Phase I study), the well-tolerated doses result was “up to 1 mg/kg”. Moreover, the safety and tolerability entry in data set [4] (all dose levels 0.01-1.0 mg/kg) is “safe and well tolerated at all dose levels”. Further, the “mean Cmax” value in data set [4] (single dose infused IV over 2 hours, 0.01-1.0 mg/kg dose range) is 10 to 1275 ng/mL.
With “daratumumab: recently approved standard of care agent (mAb) for multiple myeloma”, the response rate in the data set on relapsed/refractory MM was ≤ 30%.

B1: Centyrin-Fc fusion protein (the Centyrin from P-BCMA-101 fused to Fc) (Fc fusion)
chain: MLPAPKNLVVSRITEDSARLSWTAPDAAFDSFPIRYIETLIWGEAIWLDVPGSERSYDLTGLKPGTEYAVVITGVKGGRFSSPLVASFTT
notes: not shown: Fc part, any linker and the order of the parts are not described
As for B1, the binding result in data set [5] is on record as “binds”.

Source of the values: patent US20230190811A1, “COMPOSITIONS AND METHODS FOR USE IN THE TREATMENT OF CANCER” (Poseida Therapeutics, Inc., priority 2020, published 2023).
